From the NIST ThermoML archive (doi:10.1016/j.jct.2019.02.028)
Several values for one entry are separate records, joined by “and”; a condition that tells them apart may be missing. Equal entries are not always repeated.

Assay: xn = mol fraction of the nth substance listed
Settings: Gas, Burnett expansion method

C=C(F)C(F)(F)F [2,3,3,3-tetrafluoro-1-propene] + FCF
Settings	mass density
373.17 K, 4066.8 kPa, x2 = 0.259	238.02 kg/m3
373.17 K, 4925.9 kPa, x2 = 0.874	143.64 kg/m3
373.18 K, 619.83 kPa, x2 = 0.259	20.68 kg/m3
373.18 K, 900.76 kPa, x2 = 0.449	26.92 kg/m3
373.18 K, 906.18 kPa, x2 = 0.259	31.05 kg/m3
373.18 K, 916.21 kPa, x2 = 0.874	18.76 kg/m3
373.18 K, 1093.4 kPa, x2 = 0.119	41.92 kg/m3
373.18 K, 1339 kPa, x2 = 0.874	28.18 kg/m3
373.18 K, 1863.1 kPa, x2 = 0.449	60.74 kg/m3
373.18 K, 2517.6 kPa, x2 = 0.259	105.24 kg/m3
373.18 K, 2728.4 kPa, x2 = 0.874	63.56 kg/m3
373.18 K, 3301.3 kPa, x2 = 0.259	158.31 kg/m3
373.19 K, 755.34 kPa, x2 = 0.119	27.91 kg/m3
373.19 K, 1931.1 kPa, x2 = 0.874	42.32 kg/m3
373.19 K, 2828.2 kPa, x2 = 0.119	142.15 kg/m3
373.2 K, 624.61 kPa, x2 = 0.874	12.49 kg/m3
373.2 K, 3505 kPa, x2 = 0.119	213.51 kg/m3
373.2 K, 4006.2 kPa, x2 = 0.119	320.47 kg/m3
373.2 K, 4661.9 kPa, x2 = 0.259	359.6 kg/m3
373.21 K, 1306.4 kPa, x2 = 0.259	46.64 kg/m3
378.05 K, 2079.9 kPa, x2 = 0.698	53.99 kg/m3
378.06 K, 1451.7 kPa, x2 = 0.698	35.94 kg/m3
378.07 K, 5426.1 kPa, x2 = 0.449	308.92 kg/m3
378.08 K, 622.36 kPa, x2 = 0.449	17.91 kg/m3
378.08 K, 2782.2 kPa, x2 = 0.874	63.55 kg/m3
378.08 K, 2911.8 kPa, x2 = 0.698	81.09 kg/m3
378.08 K, 3552.8 kPa, x2 = 0.449	136.97 kg/m3
378.08 K, 4525.2 kPa, x2 = 0.449	205.67 kg/m3
378.09 K, 1328.7 kPa, x2 = 0.449	40.42 kg/m3
378.09 K, 1878.5 kPa, x2 = 0.259	70.04 kg/m3
378.09 K, 2649.2 kPa, x2 = 0.449	91.19 kg/m3
378.09 K, 3936.7 kPa, x2 = 0.698	121.78 kg/m3
378.09 K, 4937.5 kPa, x2 = 0.259	358.03 kg/m3
378.09 K, 5074.6 kPa, x2 = 0.698	182.93 kg/m3
378.1 K, 678.04 kPa, x2 = 0.698	15.93 kg/m3
378.1 K, 920.5 kPa, x2 = 0.259	31.05 kg/m3
378.1 K, 997.84 kPa, x2 = 0.698	23.93 kg/m3
378.1 K, 1582.4 kPa, x2 = 0.119	62.96 kg/m3
378.1 K, 1897.6 kPa, x2 = 0.449	60.71 kg/m3
378.1 K, 2190.4 kPa, x2 = 0.119	94.57 kg/m3
378.1 K, 3832.4 kPa, x2 = 0.874	95.49 kg/m3
378.1 K, 4232.9 kPa, x2 = 0.259	237.67 kg/m3
378.1 K, 5071.5 kPa, x2 = 0.874	143.48 kg/m3
378.11 K, 629.16 kPa, x2 = 0.259	20.67 kg/m3
378.11 K, 767.1 kPa, x2 = 0.119	27.9 kg/m3
378.11 K, 914.69 kPa, x2 = 0.449	26.91 kg/m3
378.11 K, 1360.2 kPa, x2 = 0.874	28.17 kg/m3
378.11 K, 1964.7 kPa, x2 = 0.874	42.31 kg/m3
378.11 K, 2577.3 kPa, x2 = 0.259	105.22 kg/m3
378.11 K, 2909.1 kPa, x2 = 0.119	142.06 kg/m3
378.12 K, 633.28 kPa, x2 = 0.874	12.49 kg/m3
378.12 K, 929.88 kPa, x2 = 0.874	18.75 kg/m3
378.12 K, 1329.1 kPa, x2 = 0.259	46.64 kg/m3
378.12 K, 3399.6 kPa, x2 = 0.259	158.16 kg/m3
378.12 K, 3642.1 kPa, x2 = 0.119	213.38 kg/m3
378.12 K, 4237.1 kPa, x2 = 0.119	320.38 kg/m3
378.13 K, 1112 kPa, x2 = 0.119	41.91 kg/m3
382.98 K, 1475.1 kPa, x2 = 0.698	35.93 kg/m3
382.98 K, 2117.2 kPa, x2 = 0.698	53.97 kg/m3
382.99 K, 631.25 kPa, x2 = 0.449	17.91 kg/m3
383 K, 1350.2 kPa, x2 = 0.449	40.4 kg/m3
383 K, 2705.6 kPa, x2 = 0.449	91.15 kg/m3
383 K, 2835.7 kPa, x2 = 0.874	63.53 kg/m3
383 K, 3918.9 kPa, x2 = 0.874	95.42 kg/m3
383 K, 4682.2 kPa, x2 = 0.449	205.63 kg/m3
383 K, 5686.5 kPa, x2 = 0.449	308.85 kg/m3
383.01 K, 928.35 kPa, x2 = 0.449	26.9 kg/m3
383.01 K, 1476 kPa, x2 = 0.698	35.93 kg/m3
383.01 K, 2118 kPa, x2 = 0.698	53.97 kg/m3
383.01 K, 2705.6 kPa, x2 = 0.449	91.15 kg/m3
383.01 K, 2972.2 kPa, x2 = 0.698	81.06 kg/m3
383.01 K, 3646.5 kPa, x2 = 0.449	136.9 kg/m3
383.01 K, 4036.2 kPa, x2 = 0.698	121.75 kg/m3
383.01 K, 4682.4 kPa, x2 = 0.449	205.63 kg/m3
383.01 K, 5245.7 kPa, x2 = 0.698	182.87 kg/m3
383.02 K, 928.34 kPa, x2 = 0.449	26.9 kg/m3
383.02 K, 1012.8 kPa, x2 = 0.698	23.92 kg/m3
383.02 K, 1381.5 kPa, x2 = 0.874	28.16 kg/m3
383.02 K, 1914.9 kPa, x2 = 0.259	70.04 kg/m3
383.02 K, 1937.6 kPa, x2 = 0.449	60.69 kg/m3
383.02 K, 1937.7 kPa, x2 = 0.449	60.69 kg/m3
383.02 K, 2238 kPa, x2 = 0.119	94.52 kg/m3
383.02 K, 2635.6 kPa, x2 = 0.259	105.19 kg/m3
383.02 K, 2635.8 kPa, x2 = 0.259	105.19 kg/m3
383.02 K, 2972.4 kPa, x2 = 0.698	81.06 kg/m3
383.02 K, 3646.6 kPa, x2 = 0.449	136.9 kg/m3
383.02 K, 3919.7 kPa, x2 = 0.874	95.42 kg/m3
383.02 K, 4035.8 kPa, x2 = 0.698	121.75 kg/m3
383.02 K, 4396.6 kPa, x2 = 0.259	237.32 kg/m3
383.02 K, 5211.2 kPa, x2 = 0.259	356.45 kg/m3 and 356.44 kg/m3
383.02 K, 5215.7 kPa, x2 = 0.874	143.31 kg/m3
383.02 K, 5215.8 kPa, x2 = 0.874	143.31 kg/m3
383.02 K, 5245.8 kPa, x2 = 0.698	182.87 kg/m3
383.03 K, 934.81 kPa, x2 = 0.259	31.04 kg/m3
383.03 K, 1350.5 kPa, x2 = 0.449	40.4 kg/m3
383.03 K, 1351.5 kPa, x2 = 0.259	46.63 kg/m3
383.03 K, 1381.4 kPa, x2 = 0.874	28.16 kg/m3
383.03 K, 1611.8 kPa, x2 = 0.119	62.93 kg/m3
383.03 K, 1611.9 kPa, x2 = 0.119	62.93 kg/m3
383.03 K, 1915 kPa, x2 = 0.259	70.04 kg/m3
383.03 K, 1998.1 kPa, x2 = 0.874	42.29 kg/m3
383.03 K, 2238.3 kPa, x2 = 0.119	94.52 kg/m3
383.03 K, 2836.1 kPa, x2 = 0.874	63.53 kg/m3
383.03 K, 2989.1 kPa, x2 = 0.119	141.97 kg/m3
383.03 K, 3496.5 kPa, x2 = 0.259	158 kg/m3
383.03 K, 3777.6 kPa, x2 = 0.119	213.24 kg/m3
383.03 K, 4397.4 kPa, x2 = 0.259	237.31 kg/m3
383.03 K, 4464.7 kPa, x2 = 0.119	320.28 kg/m3
383.03 K, 4465 kPa, x2 = 0.119	320.28 kg/m3
383.04 K, 638.24 kPa, x2 = 0.259	20.67 kg/m3
383.04 K, 642.12 kPa, x2 = 0.874	12.48 kg/m3
383.04 K, 688.17 kPa, x2 = 0.698	15.93 kg/m3
383.04 K, 778.8 kPa, x2 = 0.119	27.9 kg/m3
383.04 K, 943.49 kPa, x2 = 0.874	18.75 kg/m3
383.04 K, 1130.2 kPa, x2 = 0.119	41.9 kg/m3
383.04 K, 1998.1 kPa, x2 = 0.874	42.29 kg/m3
383.04 K, 2989.2 kPa, x2 = 0.119	141.97 kg/m3
383.04 K, 3777.7 kPa, x2 = 0.119	213.24 kg/m3
383.05 K, 943.52 kPa, x2 = 0.874	18.75 kg/m3
383.05 K, 3496.8 kPa, x2 = 0.259	158 kg/m3
383.06 K, 935.34 kPa, x2 = 0.259	31.04 kg/m3
383.06 K, 1130.4 kPa, x2 = 0.119	41.9 kg/m3
